From US9815847B2 (Icahn School of Medicine at Mount Sinai, priority 2013, dated 2017)

Tests used:
K562 = experiment: Cytotoxicity on K562 cancer cell line; format: cell-based; settings: Homo sapiens; K562 chronic myelogenous leukemia; 96 h; 0.01-100 μM
Procedure: The effect of the compounds described herein on tumor cells was determined by the assay described by Latham et al., Oncogene 12:827-837 (1996). Tumor cells K562 (chronic myelogenous leukemia; leukemia cell line +ve for Bcr-Abl) or DU145 (prostate cancer) were plated in 12-well dishes at a cell density of 2.5×10^4 cells per well. The plated cells were treated 24 h. later with a DMSO solution of a compound as described herein at multiple concentrations ranging from 0.01 μM to 100 μM. The plates were examined 96 h. later under an inverted microscope, Olympus CK-2 using a 10× objective, and compound activity was noted by physical observation. When necessary, the total number of viable cells was determined by trypsinizing the wells and counting the number of viable cells, as determined by trypan blue exclusion, using a hemacytometer.

ABL1 = target: T1, ABL1 (Homo sapiens, UniProt P00519); experiment: Kinase inhibition assay; format: biochemical; settings: 10 μM ATP; 5-dose IC50 mode
T1 construct: purchased Reaction Biology Corporation
Procedure: (§1) Kinase assays were performed at Reaction Biology Corporation. To a freshly prepared buffer solution was added the target kinase at a concentration of […]. The contents were mixed gently, and then compound 8h dissolved in DMSO was added to the reaction mixture in the appropriate concentration. The mixture was incubated at room temperature for 30 min. prior to addition of ATP to initiate the reaction. Compound 8h was tested in a 5-dose IC50 mode with 10-fold serial dilutions starting at 10 μM. For each of the kinases, a control compound in a 10-dose IC50 mode with 3-fold serial dilutions starting at 20 μM. The control compounds were GW5074 (3-(3,5-dibromo-4-hydroxy-benzylidene)-5-iodo-1,3-dihydro-indol-2-one) for BRAF, CK2a and RAF1, D4476 (4-[4-(2,3-dihydro-1,4-benzodioxin-6-yl)-5-(2-pyridinyl)-1H-imidazol-2-yl]benzamide) for CK1d; Wee1 inhibitor (4-(2-chlorophenyl)-9-hydroxypyrrolo[3,4-c]carbazole-1,3-(2H,6H)-dione) for WEE1 and saturosporine for other kinases. Reaction was carried out at 10 μM ATP concentration.

AKT1 = target: T2, AKT1 (Homo sapiens, UniProt P31749); experiment: Kinase inhibition assay; format: biochemical; settings: 10 μM ATP; 5-dose IC50 mode
T2 construct: purchased Reaction Biology Corporation
T2 sequence (P31749 whole entry): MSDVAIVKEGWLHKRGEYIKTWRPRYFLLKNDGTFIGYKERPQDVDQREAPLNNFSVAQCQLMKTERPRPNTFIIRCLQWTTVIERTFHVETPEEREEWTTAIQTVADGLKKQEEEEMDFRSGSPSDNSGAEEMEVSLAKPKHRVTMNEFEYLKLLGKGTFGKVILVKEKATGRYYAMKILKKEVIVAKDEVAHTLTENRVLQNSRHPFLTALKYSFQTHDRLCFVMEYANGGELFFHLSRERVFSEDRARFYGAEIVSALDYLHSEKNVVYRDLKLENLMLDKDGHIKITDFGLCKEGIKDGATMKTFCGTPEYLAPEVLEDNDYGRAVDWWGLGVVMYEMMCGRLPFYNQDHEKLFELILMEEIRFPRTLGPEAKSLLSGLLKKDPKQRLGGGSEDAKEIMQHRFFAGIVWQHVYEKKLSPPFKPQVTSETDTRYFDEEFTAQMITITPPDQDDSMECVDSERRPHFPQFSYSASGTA
Procedure: as §1

ALK = target: T3, ALK (Homo sapiens, UniProt Q9UM73); experiment: Kinase inhibition assay; format: biochemical; settings: 10 μM ATP; 5-dose IC50 mode
T3 construct: purchased Reaction Biology Corporation
Procedure: as §1

ARK5/NUAK1 = target: T4, ARK5/NUAK1 (Homo sapiens, UniProt O60285); experiment: Kinase inhibition assay; format: biochemical; settings: 10 μM ATP; 5-dose IC50 mode
T4 construct: purchased Reaction Biology Corporation
T4 sequence (O60285 whole entry): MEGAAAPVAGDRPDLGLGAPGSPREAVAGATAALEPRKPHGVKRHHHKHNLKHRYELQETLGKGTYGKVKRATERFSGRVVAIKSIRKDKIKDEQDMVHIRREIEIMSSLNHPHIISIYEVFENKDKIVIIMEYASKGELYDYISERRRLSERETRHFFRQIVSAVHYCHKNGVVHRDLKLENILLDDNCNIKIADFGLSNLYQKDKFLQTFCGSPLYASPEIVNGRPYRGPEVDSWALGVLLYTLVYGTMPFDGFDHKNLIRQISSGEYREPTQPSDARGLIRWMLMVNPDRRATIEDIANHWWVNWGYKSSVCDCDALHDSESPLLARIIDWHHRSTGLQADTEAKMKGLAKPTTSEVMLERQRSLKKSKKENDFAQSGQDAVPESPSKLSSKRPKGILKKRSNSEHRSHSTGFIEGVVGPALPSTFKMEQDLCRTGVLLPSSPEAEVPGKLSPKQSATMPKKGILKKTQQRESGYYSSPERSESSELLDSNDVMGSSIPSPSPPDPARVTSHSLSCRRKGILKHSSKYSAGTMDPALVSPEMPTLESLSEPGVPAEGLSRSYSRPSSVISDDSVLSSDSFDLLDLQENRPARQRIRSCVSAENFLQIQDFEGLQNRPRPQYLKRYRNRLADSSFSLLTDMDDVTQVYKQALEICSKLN
Procedure: as §1

Aurora A = target: T5, Aurora A (Homo sapiens, UniProt O14965); experiment: Kinase inhibition assay; format: biochemical; settings: 10 μM ATP; 5-dose IC50 mode
T5 construct: purchased Reaction Biology Corporation
Procedure: as §1

Aurora B = target: T6, Aurora B (Homo sapiens, UniProt Q96GD4); experiment: Kinase inhibition assay; format: biochemical; settings: 10 μM ATP; 5-dose IC50 mode
T6 construct: purchased Reaction Biology Corporation
Procedure: as §1

Aurora C = target: T7, Aurora C (Homo sapiens, UniProt Q9UQB9); experiment: Kinase inhibition assay; format: biochemical; settings: 10 μM ATP; 5-dose IC50 mode
T7 construct: purchased Reaction Biology Corporation
T7 sequence (Q9UQB9 whole entry): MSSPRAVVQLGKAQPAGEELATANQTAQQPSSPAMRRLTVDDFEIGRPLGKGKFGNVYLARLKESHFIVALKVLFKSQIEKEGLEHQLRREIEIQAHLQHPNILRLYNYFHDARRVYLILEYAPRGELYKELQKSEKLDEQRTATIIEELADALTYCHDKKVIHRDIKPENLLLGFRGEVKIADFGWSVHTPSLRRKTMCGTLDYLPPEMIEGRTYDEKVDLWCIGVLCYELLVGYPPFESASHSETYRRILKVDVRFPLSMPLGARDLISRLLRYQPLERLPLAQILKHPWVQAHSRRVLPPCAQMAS
Procedure: as §1

CDK2/cyclin A = target: T8, CDK2/cyclin A (Homo sapiens, UniProt P24941); experiment: Kinase inhibition assay; format: biochemical; settings: 10 μM ATP; 5-dose IC50 mode
T8 construct: purchased Reaction Biology Corporation
Procedure: as §1

CDK4/cyclin D1 = target: T9, CDK4/cyclin D1 (Homo sapiens, UniProt P11802); experiment: Kinase inhibition assay; format: biochemical; settings: 10 μM ATP; 5-dose IC50 mode
T9 construct: purchased Reaction Biology Corporation
T9 sequence (P11802 whole entry): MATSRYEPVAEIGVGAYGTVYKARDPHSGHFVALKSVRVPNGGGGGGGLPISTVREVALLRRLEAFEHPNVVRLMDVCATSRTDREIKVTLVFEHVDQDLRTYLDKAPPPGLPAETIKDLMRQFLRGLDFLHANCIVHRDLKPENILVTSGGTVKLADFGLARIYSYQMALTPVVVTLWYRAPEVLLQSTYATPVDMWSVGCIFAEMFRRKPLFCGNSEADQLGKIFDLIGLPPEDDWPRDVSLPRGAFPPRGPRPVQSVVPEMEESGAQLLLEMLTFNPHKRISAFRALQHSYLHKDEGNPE
T9 sequence (P24385 whole entry partner): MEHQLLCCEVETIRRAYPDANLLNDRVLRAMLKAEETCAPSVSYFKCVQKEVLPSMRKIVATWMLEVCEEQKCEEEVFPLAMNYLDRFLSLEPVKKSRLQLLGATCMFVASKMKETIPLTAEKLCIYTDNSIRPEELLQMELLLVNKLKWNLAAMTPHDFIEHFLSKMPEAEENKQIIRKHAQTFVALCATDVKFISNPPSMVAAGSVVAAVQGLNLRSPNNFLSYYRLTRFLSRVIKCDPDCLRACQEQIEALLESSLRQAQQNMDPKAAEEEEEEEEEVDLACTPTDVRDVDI
Procedure: as §1

CDK5/p25 = target: T10, CDK5/p25 (Homo sapiens, UniProt Q00535); experiment: Kinase inhibition assay; format: biochemical; settings: 10 μM ATP; 5-dose IC50 mode
T10 construct: purchased Reaction Biology Corporation
Procedure: as §1

CDK5/p35 = target: T11, CDK5/p35 (Homo sapiens, UniProt Q00535); experiment: Kinase inhibition assay; format: biochemical; settings: 10 μM ATP; 5-dose IC50 mode
T11 construct: purchased Reaction Biology Corporation
Procedure: as §1

CDK6/cyclin D1 = target: T12, CDK6/cyclin D1 (Homo sapiens, UniProt Q00534); experiment: Kinase inhibition assay; format: biochemical; settings: 10 μM ATP; 5-dose IC50 mode
T12 construct: purchased Reaction Biology Corporation
T12 sequence (Q00534 whole entry): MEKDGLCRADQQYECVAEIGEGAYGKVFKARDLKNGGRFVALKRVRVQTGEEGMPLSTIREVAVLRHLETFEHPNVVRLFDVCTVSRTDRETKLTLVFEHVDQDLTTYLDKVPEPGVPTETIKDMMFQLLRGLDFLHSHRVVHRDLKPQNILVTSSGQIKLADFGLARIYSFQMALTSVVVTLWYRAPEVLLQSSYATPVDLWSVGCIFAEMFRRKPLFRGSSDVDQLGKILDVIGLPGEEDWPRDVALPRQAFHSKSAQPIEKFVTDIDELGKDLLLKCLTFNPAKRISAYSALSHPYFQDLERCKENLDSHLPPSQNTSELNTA
T12 sequence (P24385 whole entry partner): as the sequence (P24385 whole entry partner) above
Procedure: as §1

CHK1 = target: T13, CHK1 (Homo sapiens, UniProt O14757); experiment: Kinase inhibition assay; format: biochemical; settings: 10 μM ATP; 5-dose IC50 mode
T13 construct: purchased Reaction Biology Corporation
T13 sequence (O14757 whole entry): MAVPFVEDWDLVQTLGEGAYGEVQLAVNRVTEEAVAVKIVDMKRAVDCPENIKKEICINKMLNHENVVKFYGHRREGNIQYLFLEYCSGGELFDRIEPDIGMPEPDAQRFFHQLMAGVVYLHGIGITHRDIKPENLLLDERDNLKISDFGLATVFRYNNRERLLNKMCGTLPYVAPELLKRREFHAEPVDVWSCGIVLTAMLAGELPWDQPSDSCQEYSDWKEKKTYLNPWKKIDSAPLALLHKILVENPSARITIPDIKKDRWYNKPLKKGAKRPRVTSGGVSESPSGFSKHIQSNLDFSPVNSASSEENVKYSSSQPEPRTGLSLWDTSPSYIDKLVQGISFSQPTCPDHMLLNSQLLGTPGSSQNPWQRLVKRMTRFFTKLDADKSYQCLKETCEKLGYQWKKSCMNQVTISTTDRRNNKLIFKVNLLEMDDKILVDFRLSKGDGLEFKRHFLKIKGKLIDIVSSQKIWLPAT
Procedure: as §1

CHK2 = target: T14, CHK2 (Homo sapiens, UniProt O96017); experiment: Kinase inhibition assay; format: biochemical; settings: 10 μM ATP; 5-dose IC50 mode
T14 construct: purchased Reaction Biology Corporation
Procedure: as §1

CK2a2 = target: T15, CK2a2 (Homo sapiens, UniProt P19784); experiment: Kinase inhibition assay; format: biochemical; settings: 10 μM ATP; 5-dose IC50 mode
T15 construct: purchased Reaction Biology Corporation
Procedure: as §1

EGFR = target: T16, EGFR (Homo sapiens, UniProt P00533); experiment: Kinase inhibition assay; format: biochemical; settings: 10 μM ATP; 5-dose IC50 mode
T16 construct: purchased Reaction Biology Corporation
Procedure: as §1

FGFR1 = target: T17, FGFR1 (Homo sapiens, UniProt P11362); experiment: Kinase inhibition assay; format: biochemical; settings: 10 μM ATP; 5-dose IC50 mode
T17 construct: purchased Reaction Biology Corporation
T17 sequence (P11362 22-822): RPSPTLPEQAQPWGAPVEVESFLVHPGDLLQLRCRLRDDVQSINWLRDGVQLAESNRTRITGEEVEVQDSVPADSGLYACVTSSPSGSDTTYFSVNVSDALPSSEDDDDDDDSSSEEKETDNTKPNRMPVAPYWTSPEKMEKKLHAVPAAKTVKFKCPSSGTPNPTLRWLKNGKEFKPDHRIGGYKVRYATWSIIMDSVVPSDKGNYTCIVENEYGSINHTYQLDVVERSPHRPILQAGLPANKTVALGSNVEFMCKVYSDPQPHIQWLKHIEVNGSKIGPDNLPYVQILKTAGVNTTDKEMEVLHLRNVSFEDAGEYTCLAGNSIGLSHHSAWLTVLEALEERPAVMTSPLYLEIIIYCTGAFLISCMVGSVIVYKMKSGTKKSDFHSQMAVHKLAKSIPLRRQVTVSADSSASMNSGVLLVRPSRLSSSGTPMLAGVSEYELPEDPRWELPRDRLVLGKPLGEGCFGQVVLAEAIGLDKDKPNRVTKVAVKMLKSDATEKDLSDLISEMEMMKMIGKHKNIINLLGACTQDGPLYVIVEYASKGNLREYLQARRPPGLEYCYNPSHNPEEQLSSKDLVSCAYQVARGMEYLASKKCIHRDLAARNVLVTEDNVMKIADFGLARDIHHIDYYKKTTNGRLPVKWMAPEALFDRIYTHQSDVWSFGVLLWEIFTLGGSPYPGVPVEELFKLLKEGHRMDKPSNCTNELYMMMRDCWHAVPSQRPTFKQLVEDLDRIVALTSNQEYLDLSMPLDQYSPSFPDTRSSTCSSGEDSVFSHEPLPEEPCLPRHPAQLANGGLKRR
Procedure: as §1

FLT3 = target: T18, FLT3 (Homo sapiens, UniProt P36888); experiment: Kinase inhibition assay; format: biochemical; settings: 10 μM ATP; 5-dose IC50 mode
T18 construct: purchased Reaction Biology Corporation
Procedure: as §1

JAK1 = target: T19, JAK1 (Homo sapiens, UniProt P23458); experiment: Kinase inhibition assay; format: biochemical; settings: 10 μM ATP; 5-dose IC50 mode
T19 construct: purchased Reaction Biology Corporation
Procedure: as §1

JAK2 = target: T20, JAK2 (Homo sapiens, UniProt O60674); experiment: Kinase inhibition assay; format: biochemical; settings: 10 μM ATP; 5-dose IC50 mode
T20 construct: purchased Reaction Biology Corporation
Procedure: as §1

JAK3 = target: T21, JAK3 (Homo sapiens, UniProt P52333); experiment: Kinase inhibition assay; format: biochemical; settings: 10 μM ATP; 5-dose IC50 mode
T21 construct: purchased Reaction Biology Corporation
Procedure: as §1

MEK1 = target: T22, MEK1 (Homo sapiens, UniProt Q02750); experiment: Kinase inhibition assay; format: biochemical; settings: 10 μM ATP; 5-dose IC50 mode
T22 construct: purchased Reaction Biology Corporation
T22 sequence (Q02750 whole entry): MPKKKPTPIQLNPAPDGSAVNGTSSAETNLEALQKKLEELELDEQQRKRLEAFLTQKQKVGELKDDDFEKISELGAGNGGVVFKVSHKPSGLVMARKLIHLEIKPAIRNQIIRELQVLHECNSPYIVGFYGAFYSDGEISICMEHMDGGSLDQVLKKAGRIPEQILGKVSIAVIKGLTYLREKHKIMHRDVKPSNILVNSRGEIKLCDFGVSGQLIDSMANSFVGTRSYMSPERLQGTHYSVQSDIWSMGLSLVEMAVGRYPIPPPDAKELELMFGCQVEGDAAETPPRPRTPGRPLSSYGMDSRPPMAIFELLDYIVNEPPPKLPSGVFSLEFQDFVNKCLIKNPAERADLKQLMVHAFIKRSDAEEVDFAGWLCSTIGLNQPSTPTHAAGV
Procedure: as §1

MEK2 = target: T23, MEK2 (Homo sapiens, UniProt P36507); experiment: Kinase inhibition assay; format: biochemical; settings: 10 μM ATP; 5-dose IC50 mode
T23 construct: purchased Reaction Biology Corporation
T23 sequence (P36507 whole entry): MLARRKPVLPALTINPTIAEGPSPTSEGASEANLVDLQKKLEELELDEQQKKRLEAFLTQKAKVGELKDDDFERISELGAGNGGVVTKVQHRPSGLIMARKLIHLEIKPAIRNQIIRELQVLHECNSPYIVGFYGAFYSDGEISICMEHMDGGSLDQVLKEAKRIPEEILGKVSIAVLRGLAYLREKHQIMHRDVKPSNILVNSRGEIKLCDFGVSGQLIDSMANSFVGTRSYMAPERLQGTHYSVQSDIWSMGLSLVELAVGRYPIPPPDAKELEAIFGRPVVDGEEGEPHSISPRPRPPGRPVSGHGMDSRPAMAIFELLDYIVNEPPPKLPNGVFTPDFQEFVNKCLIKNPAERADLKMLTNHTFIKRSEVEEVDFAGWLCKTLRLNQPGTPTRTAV
Procedure: as §1

PDGFRb = target: T24, PDGFRb (Homo sapiens, UniProt P09619); experiment: Kinase inhibition assay; format: biochemical; settings: 10 μM ATP; 5-dose IC50 mode
T24 construct: purchased Reaction Biology Corporation
Procedure: as §1

PIM1 = target: T25, PIM1 (Homo sapiens, UniProt P11309); experiment: Kinase inhibition assay; format: biochemical; settings: 10 μM ATP; 5-dose IC50 mode
T25 construct: purchased Reaction Biology Corporation
Procedure: as §1

PIM3 = target: T26, PIM3 (Homo sapiens, UniProt Q86V86); experiment: Kinase inhibition assay; format: biochemical; settings: 10 μM ATP; 5-dose IC50 mode
T26 construct: purchased Reaction Biology Corporation
Procedure: as §1

PLK1 = target: T27, PLK1 (Homo sapiens, UniProt P53350); experiment: Kinase inhibition assay; format: biochemical; settings: 10 μM ATP; 5-dose IC50 mode
T27 construct: purchased Reaction Biology Corporation
Procedure: as §1

PLK2 = target: T28, PLK2 (Homo sapiens, UniProt Q9NYY3); experiment: Kinase inhibition assay; format: biochemical; settings: 10 μM ATP; 5-dose IC50 mode
T28 construct: purchased Reaction Biology Corporation
Procedure: as §1

RET = target: T29, RET (Homo sapiens, UniProt P07949); experiment: Kinase inhibition assay; format: biochemical; settings: 10 μM ATP; 5-dose IC50 mode
T29 construct: purchased Reaction Biology Corporation
Procedure: as §1

RSK4 = target: T30, RSK4 (Homo sapiens, UniProt Q9UK32); experiment: Kinase inhibition assay; format: biochemical; settings: 10 μM ATP; 5-dose IC50 mode
T30 construct: purchased Reaction Biology Corporation
Procedure: as §1

c-Kit = target: T31, c-Kit (Homo sapiens, UniProt P10721); experiment: Kinase inhibition assay; format: biochemical; settings: 10 μM ATP; 5-dose IC50 mode
T31 construct: purchased Reaction Biology Corporation
Procedure: as §1

c-Src = target: T32, c-Src (Homo sapiens, UniProt P12931); experiment: Kinase inhibition assay; format: biochemical; settings: 10 μM ATP; 5-dose IC50 mode
T32 construct: purchased Reaction Biology Corporation
Procedure: as §1

CN1CCN(c2ccc(Nc3ncc(/C=C/C#N)c(NC4CCCC4)n3)cc2)CC1 [Compound 8h, 3-{4-Cyclopentylamino-2-[4-(4-methylpiperazin-1-yl)phenylamino]pyrimidin-5-yl}acrylonitrile]
IC50 (K562): < 1 µM
IC50 (ABL1): < 100 nM
IC50 (AKT1): > 1000 nM
IC50 (ALK): < 100 nM
IC50 (ARK5/NUAK1): < 100 nM
IC50 (Aurora A): 100 to 1000 nM
IC50 (Aurora B): < 100 nM
IC50 (Aurora C): > 1000 nM
IC50 (CDK2/cyclin A): > 1000 nM
IC50 (CDK4/cyclin D1): 100 to 1000 nM
IC50 (CDK5/p25): > 10000 nM
IC50 (CDK5/p35): > 10000 nM
IC50 (CDK6/cyclin D1): 100 to 1000 nM
IC50 (CHK1): 100 to 1000 nM
IC50 (CHK2): 100 to 1000 nM
IC50 (CK2a2): 100 to 1000 nM
IC50 (EGFR): 100 to 1000 nM
IC50 (FGFR1): < 100 nM
IC50 (FLT3): < 100 nM
IC50 (JAK1): 100 to 1000 nM
IC50 (JAK2): 100 to 1000 nM
IC50 (JAK3): 100 to 1000 nM
IC50 (MEK1): > 1000 nM
IC50 (MEK2): > 1000 nM
IC50 (PDGFRb): < 100 nM
IC50 (PIM1): > 1000 nM
IC50 (PIM3): > 1000 nM
IC50 (PLK1): 100 to 1000 nM
IC50 (PLK2): > 1000 nM
IC50 (RET): < 100 nM
IC50 (RSK4): < 100 nM
IC50 (c-Kit): 100 to 1000 nM
IC50 (c-Src): < 100 nM
